Assay results reported in ChEMBL document CHEMBL3885861, “Open TG-GATES”.

Organism: Rattus norvegicus
Experiment: Open TG-GATES - Regimen: Single
Format: toxicity, organism-based, Sprague-Dawley
Set-up: regimen Single, gender Male, age 6 weeks
Details: in vivo, po, 300 mg/kg, route gavage, dose level Middle; for APTT / Bas / Eos / Fbg / Hb / Ht / Lym / MCH / MCHC / MCV / Mono / Neu / PT / Plat / RBC / Ret / WBC: tissue Blood; for KIDNEY_L / KIDNEY_R / KIDNEY_TOTAL: tissue Kidney; for LIVER: tissue Liver; for A/G / ALP / ALT / AST / BUN / CRE / Ca / Cl / DBIL / GLC / IP / K / LDH / Na / PL / RALB / TBIL / TC / TG / TP / gamma-GTP: tissue Plasma

Structure (SMILES): CC(S)C(=O)NCC(=O)O (configuration not stated) [TIOPRONIN]
- TERMINAL_BW (3 h): 211.9 g
- APTT (3 h): 22.7 s
- Bas (3 h): 0%
- Eos (3 h): 0.4%
- Fbg (3 h): 295.4 mg/dL
- Hb (3 h): 12.8 g/dL
- Ht (3 h): 39.7%
- Lym (3 h): 77.8%
- MCH (3 h): 20.3 pg
- MCHC (3 h): 32.2%
- MCV (3 h): 63 fL
- Mono (3 h): 2.6%
- Neu (3 h): 18.4%
- PT (3 h): 16.8 s
- Plat (3 h): 116 x10_4/uL
- RBC (3 h): 631.6 x10_4/ul
- Ret (3 h): 7.7%
- WBC (3 h): 76.7 x10_2/uL
- KIDNEY_L (3 h): 0.9 g
- KIDNEY_R (3 h): 1 g
- KIDNEY_TOTAL (3 h): 1.9 g
- LIVER (3 h): 9.7 g
- A/G (3 h): 1.2
- ALP (3 h): 1446.8 IU/L
- ALT (3 h): 65.2 IU/L
- AST (3 h): 83.6 IU/L
- BUN (3 h): 10.8 mg/dL
- CRE (3 h): 0.1 mg/dL
- Ca (3 h): 10.7 mg/dL
- Cl (3 h): 106.2 meq/L
- DBIL (3 h): 0.002 mg/dL
- GLC (3 h): 194.8 mg/dL
- IP (3 h): 7.9 mg/dL
- K (3 h): 3.9 meq/L
- LDH (3 h): 169.4 IU/L
- Na (3 h): 142.2 meq/L
- PL (3 h): 125.2 mg/dL
- RALB (3 h): 3 g/dL
- TBIL (3 h): 0.02 mg/dL
- TC (3 h): 73.6 mg/dL
- TG (3 h): 47 mg/dL
- TP (3 h): 5.4 g/dL
- gamma-GTP (3 h): 2 IU/L
- TERMINAL_BW (6 h): 212 g
- APTT (6 h): 21.2 s
- Bas (6 h): 0%
- Eos (6 h): 0.8%
- Fbg (6 h): 290.4 mg/dL
- Hb (6 h): 12.6 g/dL
- Ht (6 h): 38.8%
- Lym (6 h): 80.4%
- MCH (6 h): 20.2 pg
- MCHC (6 h): 32.5%
- MCV (6 h): 62.2 fL
- Mono (6 h): 2.6%
- Neu (6 h): 15.4%
- PT (6 h): 16.9 s
- Plat (6 h): 121.4 x10_4/uL
- RBC (6 h): 625 x10_4/ul
- Ret (6 h): 8%
- WBC (6 h): 77.2 x10_2/uL
- KIDNEY_L (6 h): 0.9 g
- KIDNEY_R (6 h): 1 g
- KIDNEY_TOTAL (6 h): 1.9 g
- LIVER (6 h): 9.2 g
- A/G (6 h): 1.2
- ALP (6 h): 1527 IU/L
- ALT (6 h): 58 IU/L
- AST (6 h): 73 IU/L
- BUN (6 h): 8.4 mg/dL
- CRE (6 h): 0.1 mg/dL
- Ca (6 h): 10.8 mg/dL
- Cl (6 h): 107.4 meq/L
- DBIL (6 h): 0 mg/dL
- GLC (6 h): 191.6 mg/dL
- IP (6 h): 9.6 mg/dL
- K (6 h): 4.4 meq/L
- LDH (6 h): 154.2 IU/L
- Na (6 h): 142.2 meq/L
- PL (6 h): 117.2 mg/dL
- RALB (6 h): 2.9 g/dL
- TBIL (6 h): 0.022 mg/dL
- TC (6 h): 67.2 mg/dL
- TG (6 h): 59.4 mg/dL
- TP (6 h): 5.3 g/dL
- gamma-GTP (6 h): 1.8 IU/L
- TERMINAL_BW (9 h): 208.1 g
- APTT (9 h): 23.7 s
- Bas (9 h): 0%
- Eos (9 h): 0.4%
- Fbg (9 h): 293.4 mg/dL
- Hb (9 h): 12.9 g/dL
- Ht (9 h): 40.3%
- Lym (9 h): 77.8%
- MCH (9 h): 20.7 pg
- MCHC (9 h): 32.1%
- MCV (9 h): 64.6 fL
- Mono (9 h): 2.4%
- Neu (9 h): 18.6%
- PT (9 h): 16.3 s
- Plat (9 h): 118 x10_4/uL
- RBC (9 h): 624 x10_4/ul
- Ret (9 h): 7.7%
- WBC (9 h): 77 x10_2/uL
- KIDNEY_L (9 h): 0.9 g
- KIDNEY_R (9 h): 1 g
- KIDNEY_TOTAL (9 h): 1.9 g
- LIVER (9 h): 8.1 g
- A/G (9 h): 1.2
- ALP (9 h): 1363.8 IU/L
- ALT (9 h): 52.8 IU/L
- AST (9 h): 75 IU/L
- BUN (9 h): 10.6 mg/dL
- CRE (9 h): 0.1 mg/dL
- Ca (9 h): 10.6 mg/dL
- Cl (9 h): 107.4 meq/L
- DBIL (9 h): 0.008 mg/dL
- GLC (9 h): 191.4 mg/dL
- IP (9 h): 9.8 mg/dL
- K (9 h): 4.2 meq/L
- LDH (9 h): 194.2 IU/L
- Na (9 h): 143.2 meq/L
- PL (9 h): 110.6 mg/dL
- RALB (9 h): 2.8 g/dL
- TBIL (9 h): 0.02 mg/dL
- TC (9 h): 63.4 mg/dL
- TG (9 h): 42.2 mg/dL
- TP (9 h): 5.3 g/dL
- gamma-GTP (9 h): 1.2 IU/L
- TERMINAL_BW (24 h): 227.3 g
- APTT (24 h): 21.1 s
- Bas (24 h): 0%
- Eos (24 h): 0.8%
- Fbg (24 h): 312.6 mg/dL
- Hb (24 h): 12.7 g/dL
- Ht (24 h): 38.9%
- Lym (24 h): 80%
- MCH (24 h): 20.4 pg
- MCHC (24 h): 32.7%
- MCV (24 h): 62.2 fL
- Mono (24 h): 3%
- Neu (24 h): 15%
- PT (24 h): 16.1 s
- Plat (24 h): 113.7 x10_4/uL
- RBC (24 h): 624.6 x10_4/ul
- Ret (24 h): 7.4%
- WBC (24 h): 100.8 x10_2/uL
- KIDNEY_L (24 h): 1 g
- KIDNEY_R (24 h): 1 g
- KIDNEY_TOTAL (24 h): 1.9 g
- LIVER (24 h): 10.4 g
- A/G (24 h): 1.2
- ALP (24 h): 1662.2 IU/L
- ALT (24 h): 41.8 IU/L
- AST (24 h): 72.4 IU/L
- BUN (24 h): 14.6 mg/dL
- CRE (24 h): 0.2 mg/dL
- Ca (24 h): 10.8 mg/dL
- Cl (24 h): 106.4 meq/L
- DBIL (24 h): 0 mg/dL
- GLC (24 h): 193.6 mg/dL
- IP (24 h): 7.6 mg/dL
- K (24 h): 4.4 meq/L
- LDH (24 h): 161.6 IU/L
- Na (24 h): 142.6 meq/L
- PL (24 h): 143.2 mg/dL
- RALB (24 h): 3 g/dL
- TBIL (24 h): 0.018 mg/dL
- TC (24 h): 81.6 mg/dL
- TG (24 h): 102.4 mg/dL
- TP (24 h): 5.6 g/dL
- gamma-GTP (24 h): 1.2 IU/L
